From patent US10723705B2, “Heterocyclic compounds and uses thereof” (Incyte Corporation, priority 2015, dated 2020)
Where two headings read alike, the source gives them in different places.

Biological target: Human recombinant Histone Deacetylase 8 (HDAC8) (Homo sapiens (Human), UniProt Q9BY41)
Experiment: HDAC8 Enzymatic Assay (HDAC-Glo I/II luminescence)
Type: biochemical
Experimental: HDAC-Glo™ I/II Assay Kit was purchased from Promega Corporation (Madison, Wis.), including the following components: HDAC-Glo I/II Buffer (25 mM Tris buffer, pH 8.0, supplemented with 137 mM: NaCl, 2.7 mM KCl, 1% v/v Triton X-100 and 1 mM: MgCl2), luminogenic substrates Boc-GAK(Ac)-aminoluciferin (HDAC-Glo I/II substrate), proprietary developer reagent (containing trypsin). Human recombinant Histone Deacetylase 8 (HDAC8) was purchased from Enzo Life Sciences (Plymouth Meeting, Pa.).
The HDAC8 reaction was performed at room temperature in white 384-well polystyrene, flat-bottom microtiter plate (Greiner Bio-one, Monroe, N.C.) in a final volume of 20 μL. Test compounds were first diluted serially in DMSO and 100 nL were transferred to the plate wells by Echo 550 (Labcyte, Sunnyvale, Calif.) before the addition of other reaction components. The final concentration of DMSO in the assay was 0.5%. The HDAC-Glo I/II assay reagent was prepared by rehydration of lyophilized HDAC-Glo I/II substrate in 10 mL. HDAC-Glo I/II assay buffer followed with the addition of 10 μL of developer reagent. 10 uL of 3 nM HDAC8 in the HDAC-Glo I/II assay buffer were first dispensed into the microliter plate containing the compounds and incubated at room temperature for 30 min. The reactions were initiated with the addition of 10 uL HDAC-Glo I/II assay reagent with Multidrop (Thermo, Waltham, Mass.). The final concentration of HDAC8 and HDAC-Glo I/II substrate in the reaction were 1.5 nM and 50 μM, respectively. The assay plate was mixed for 1 min by orbital shaking (500 rpm) and centrifuged for 1 min at 1500 rpm. After 15 min at room temperature, luminescence signals were measured on TopCount (Perkin Elmer). Wells with no compound served as the positive controls and wells containing no HDAC8 were used as negative controls. IC50 determination was performed by fitting the curve of percentage control activity versus the log of the compound concentration using the GraphPad Prism 6.0 software.

[1] = class symbols, Table 14, read-out: HDAC8 IC50

Human recombinant Histone Deacetylase 8 (HDAC8), sequence (Q9BY41 whole entry): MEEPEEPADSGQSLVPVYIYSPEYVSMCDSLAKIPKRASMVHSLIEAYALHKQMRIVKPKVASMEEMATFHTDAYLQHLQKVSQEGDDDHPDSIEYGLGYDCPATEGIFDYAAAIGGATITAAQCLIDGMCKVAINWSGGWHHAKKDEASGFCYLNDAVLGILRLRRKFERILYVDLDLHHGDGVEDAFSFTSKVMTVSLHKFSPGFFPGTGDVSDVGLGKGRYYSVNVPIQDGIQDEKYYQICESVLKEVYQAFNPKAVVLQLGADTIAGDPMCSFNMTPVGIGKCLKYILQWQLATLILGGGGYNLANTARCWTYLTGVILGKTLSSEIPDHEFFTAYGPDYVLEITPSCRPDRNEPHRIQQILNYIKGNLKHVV

| SMILES | IC50 (HDAC8, read-out: IC50) [nM] | IC50 [1] [nM] |
| --- | --- | --- |
| O=C(NO)C(Cc1ccccc1)n1ncc2cc(Cl)ccc21 (centres unmarked) [Compound I-0001, 2-(5-Chloro-1H-indazol-1-yl)-N-hydroxy-3-phenylpropanamide] | 141 | 50 to 200 |
| O=C(NO)C(Cc1ccccc1)n1cc2ccccc2n1 (centres unmarked) [Compound I-0002, N-hydroxy-2-(2H-indazol-2-yl)-3-phenylpropanamide] | – | 200 to 500 |
| O=C(NO)C(Cc1ccccc1)n1cc2cc(Cl)ccc2n1 (centres unmarked) [Compound I-0003, 2-(5-Chloro-2H-indazol-2-yl)-N-hydroxy-3-phenylpropanamide] | 338 | 200 to 500 |
| O=C(NO)C(Cc1ccccc1)n1cc2ccc(Br)cc2n1 (centres unmarked) [Compound I-0004, 2-(6-bromo-2H-indazol-2-yl)-N-hydroxy-3-phenylpropanamide] | – | 200 to 500 |
| O=C(NO)C(Cc1ccccc1)n1nc2ccc(Cl)cc2c1C#CC1CC1 (centres unmarked) [Compound I-0005, 2-[5-Chloro-3-(cyclopropylethynyl)-2H-indazol-2-yl]-N-hydroxy-3-phenylpropanamide] | 22 | ≤ 50 |
| O=C(NO)C(Cc1ccccc1)n1cc2ccc(-c3ccccc3)cc2n1 (centres unmarked) [Compound I-0006, N-hydroxy-3-phenyl-2-(6-phenyl-2H-indazol-2-yl)propanamide] | – | 200 to 500 |
| O=C(NO)C(Cc1ccccc1)n1cc2ccc(-c3cncnc3)cc2n1 (centres unmarked) [Compound I-0007, N-hydroxy-3-phenyl-2-(6-(pyrimidin-5-yl)-2H-indazol-2-yl)propanamide] | – | 200 to 500 |
| O=C(NO)C(Cc1ccccc1)n1cc2ccc(-c3cccnc3)cc2n1 (centres unmarked) [Compound I-0008, N-hydroxy-3-phenyl-2-(6-(pyridin-3-yl)-2H-indazol-2-yl)propanamide] | – | 200 to 500 |
| O=C(NO)C(Cc1ccccc1)n1nc(C#CC2CC2)c2cc(Cl)ccc21 (centres unmarked) [Compound I-0009, 2-(5-chloro-3-(cyclopropylethynyl)-1H-indazol-1-yl)-N-hydroxy-3-phenylpropanamide] | – | 50 to 200 |
| Cn1nccc1-c1ccc2c(cnn2C(Cc2ccccc2)C(=O)NO)c1 (centres unmarked) [Compound I-0010, N-hydroxy-2-(5-(1-methyl-1H-pyrazol-5-yl)-1H-indazol-1-yl)-3-phenylpropanamide] | – | 50 to 200 |
| O=C(NO)C(Cc1ccccc1)n1ncc2cc(-c3ccncc3)ccc21 (centres unmarked) [Compound I-0011, N-hydroxy-3-phenyl-2-(5-pyridin-4-yl-1H-indazol-1-yl)propanamide] | 87 | 50 to 200 |
| O=C(NO)C(Cc1ccccc1)n1ncc2cc(-c3cncnc3)ccc21 (centres unmarked) [Compound I-0012, N-hydroxy-3-phenyl-2-(5-(pyrimidin-5-yl)-1H-indazol-1-yl)propanamide] | – | 50 to 200 |
| O=C(NO)C(Cc1ccccc1)n1ncc2cc(-c3ccccc3)ccc21 (centres unmarked) [Compound I-0013, N-hydroxy-3-phenyl-2-(5-phenyl-1H-indazol-1-yl)propanamide] | – | 200 to 500 |
| O=C(NO)C(Cc1ccccc1)n1ncc2cc(-c3c(F)cccc3F)ccc21 (centres unmarked) [Compound I-0014, 2-(5-(2,6-difluorophenyl)-1H-indazol-1-yl)-N-hydroxy-3-phenylpropanamide] | – | 200 to 500 |
| N#Cc1ccc(-c2ccc3c(cnn3C(Cc3ccccc3)C(=O)NO)c2)cc1 (centres unmarked) [Compound I-0015, 2-(5-(4-cyanophenyl)-1H-indazol-1-yl)-N-hydroxy-3-phenylpropanamide] | – | 200 to 500 |
| Cc1ccc2c(cnn2C(Cc2ccccc2)C(=O)NO)c1 (centres unmarked) [Compound I-0016, N-hydroxy-2-(5-methyl-1H-indazol-1-yl)-3-phenylpropanamide] | – | 50 to 200 |
| O=C(NO)C(Cc1ccccc1)n1ncc2cc(Br)ccc21 (centres unmarked) [Compound I-0017, 2-(5-bromo-1H-indazol-1-yl)-N-hydroxy-3-phenylpropanamide] | – | 50 to 200 |
| CCc1ccc2cnn(C(Cc3ccccc3)C(=O)NO)c2c1 (centres unmarked) [Compound I-0018, 2-(6-Ethyl-1H-indazol-1-yl)-N-hydroxy-3-phenylpropanamide] | 443 | 200 to 500 |
| O=C(NO)C(Cc1ccccc1)n1ncc2cc(C3CC3)ccc21 (centres unmarked) [Compound I-0019, 2-(5-cyclopropyl-1H-indazol-1-yl)-N-hydroxy-3-phenylpropanamide] | – | > 500 |
| CCc1ccc2c(cnn2C(Cc2ccccc2)C(=O)NO)c1 (centres unmarked) [Compound I-0020, 2-(5-ethyl-1H-indazol-1-yl)-N-hydroxy-3-phenylpropanamide] | – | 200 to 500 |
| O=C(NO)C(Cc1ccccc1)n1ncc2ccc(Br)cc21 (centres unmarked) [Compound I-0021, 2-(6-bromo-1H-indazol-1-yl)-N-hydroxy-3-phenylpropanamide] | – | > 500 |
| O=C(NO)C(Cc1ccccc1)n1ncc2ccc(-c3ccccc3)cc21 (centres unmarked) [Compound I-0022, N-hydroxy-3-phenyl-2-(6-phenyl-1H-indazol-1-yl)propanamide] | – | > 500 |
| O=C(NO)C(Cc1ccccc1)n1ncc2ccc(-c3cncnc3)cc21 (centres unmarked) [Compound I-0023, N-hydroxy-3-phenyl-2-(6-(pyrimidin-5-yl)-1H-indazol-1-yl)propanamide] | – | > 500 |
| O=C(NO)C(Cc1ccccc1)n1cc2cc(Br)ccc2n1 (centres unmarked) [Compound I-0024, 2-(5-bromo-2H-indazol-2-yl)-N-hydroxy-3-phenylpropanamide] | – | > 500 |

Second part, the compound after the results:

| IC50 (HDAC8, read-out: IC50) [nM] | IC50 [1] [nM] | SMILES |
| --- | --- | --- |
| 134 | 50 to 200 | O=C(NO)C(Cc1ccccc1)n1nc2ccc(-c3ccccc3)cc2c1C#CC1CC1 (centres unmarked) [Compound I-0025, 2-[3-(Cyclopropylethynyl)-5-phenyl-2H-indazol-2-yl]-hydroxy-3-phenylpropanamide] |
| – | ≤ 50 | NC(=O)c1ccc(-c2ccc3nn(C(Cc4ccccc4)C(=O)NO)c(C#CC4CC4)c3c2)cc1 (centres unmarked) [Compound I-0026, 4-(3-(cyclopropylethynyl)-2-(1-(hydroxyamino)-1-oxo-3-phenylpropan-2-yl)-2H-indazol-5-yl)benzamide] |
| – | 200 to 500 | O=C(NO)C(Cc1ccccc1)n1nc2ccc(-c3c(F)cccc3F)cc2c1C#CC1CC1 (centres unmarked) [Compound I-0027, 2-(3-(cyclopropylethynyl)-5-(2,6-difluorophenyl)-2H-indazol-2-yl)-N-hydroxy-3-phenylpropanamide] |
| – | ≤ 50 | Cn1nccc1-c1ccc2nn(C(Cc3ccccc3)C(=O)NO)c(C#CC3CC3)c2c1 (centres unmarked) [Compound I-0028, 2-(3-(cyclopropylethynyl)-5-(1-methyl-1H-pyrazol-5-yl)-2H-indazol-2-yl)-N-hydroxy-3-phenylpropanamide] |
| – | 50 to 200 | O=C(NO)C(Cc1ccccc1)n1nc2ccc(-c3ccncc3)cc2c1C#CC1CC1 (centres unmarked) [Compound I-0029, 2-(3-(cyclopropylethynyl)-5-(pyridin-4-yl)-2H-indazol-2-yl)-N-hydroxy-3-phenylpropanamide] |
| – | ≤ 50 | O=C(NO)C(Cc1ccccc1)n1nc2ccc(-c3cncnc3)cc2c1C#CC1CC1 (centres unmarked) [Compound I-0030, 2-(3-(cyclopropylethynyl)-5-(pyrimidin-5-yl)-2H-indazol-2-yl)-N-hydroxy-3-phenylpropanamide] |
| – | ≤ 50 | COc1ncc(-c2ccc3nn(C(Cc4ccccc4)C(=O)NO)c(C#CC4CC4)c3c2)cn1 (centres unmarked) [Compound I-0031, 2-(3-(cyclopropylethynyl)-5-(2-methoxypyrimidin-5-yl)-2H-indazol-2-yl)-N-hydroxy-3-phenylpropanamide] |
| – | ≤ 50 | Cc1ccc2nn(C(Cc3ccccc3)C(=O)NO)c(C#CC3CC3)c2c1 (centres unmarked) [Compound I-0032, 2-(3-(cyclopropylethynyl)-5-methyl-2H-indazol-2-yl)-N-hydroxy-3-phenylpropanamide] |
| – | 50 to 200 | N/C(=N\O)c1ccc(-c2ccc3nn(C(Cc4ccccc4)C(=O)NO)cc3c2)cc1 (centres unmarked) [Compound I-0033, (Z)-N-hydroxy-2-(5-(4-(N′-hydroxy-carbamimidoyl)phen-yl)-2H-indazol-2-yl)-3-phenylpropanamide] |
| – | 200 to 500 | Cn1nccc1-c1ccc2nn(C(Cc3ccccc3)C(=O)NO)cc2c1 (centres unmarked) [Compound I-0034, N-hydroxy-2-(5-(1-methyl-1H-pyrazol-5-yl)-2H-indazol-2-yl)-3-phenylpropanamide] |
| – | 200 to 500 | COc1ncc(-c2ccc3nn(C(Cc4ccccc4)C(=O)NO)cc3c2)cn1 (centres unmarked) [Compound I-0035, N-hydroxy-2-(5-(2-methoxypyrimidin-5-yl)-2H-indazol-2-yl)-3-phenylpropanamide] |
| – | > 500 | O=C(NO)C(Cc1ccccc1)n1cc2cc(-c3ccccc3)ccc2n1 (centres unmarked) [Compound I-0036, N-hydroxy-3-phenyl-2-(5-phenyl-2H-indazol-2-yl)propanamide] |
| – | > 500 | O=C(NO)C(Cc1ccccc1)n1cc2ccc(F)cc2n1 (centres unmarked) [Compound I-0037, 2-(6-fluoro-2H-indazol-2-yl)-N-hydroxy-3-phenylpropanamide] |
| – | > 500 | O=C(NO)C(Cc1ccccc1)n1cc2ccc(C(F)(F)F)cc2n1 (centres unmarked) [Compound I-0038, N-hydroxy-3-phenyl-2-(6-(trifluoromethyl)-2H-indazol-2-yl)propanamide] |
